Data on nine molecules can be found in patent publication US7402310B2, “Deoxyribonuclease, gene encoding same and use thereof” (priority 2001, dated 2008).

Series [1] concerns the target T1, DLAD (Mus musculus, UniProt Q9QY48).
T1 construct: These plasmids encode the mature proteins of DLAD and DNase II, respectively, wherein Myc and His-tags are added to their C termini; made in house; host or cells: HeLa S3 cells (human), transient transfection, Ni-NTA purification
T1 sequence (Q9QY48 23-354): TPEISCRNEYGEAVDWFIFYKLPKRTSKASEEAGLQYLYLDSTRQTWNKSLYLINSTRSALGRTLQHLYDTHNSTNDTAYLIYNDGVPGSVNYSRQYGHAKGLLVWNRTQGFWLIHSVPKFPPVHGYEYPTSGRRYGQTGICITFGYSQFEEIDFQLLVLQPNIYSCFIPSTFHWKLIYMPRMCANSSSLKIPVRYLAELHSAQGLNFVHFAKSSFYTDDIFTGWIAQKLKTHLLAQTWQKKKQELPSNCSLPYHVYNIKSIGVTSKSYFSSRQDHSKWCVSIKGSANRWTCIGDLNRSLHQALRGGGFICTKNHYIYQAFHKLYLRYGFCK
Kind of series: Sensitivity of DLAD DNase activity against inhibitors. In kind it is biochemical. The settings on record: standard conditions: pH 5.2, 45° C., 20 min, plasmid DNA substrate; read-out: IC50, inhibition of DLAD activity. The protocol: In the same manner as in (2) of Example 3, HeLa S3 cells (5×10^6) were transfected with 25 μg of pcmDLAD-Myc-His or pcmDNaseII-Myc-His, individually. These plasmids encode the mature proteins of DLAD and DNase II, respectively, wherein Myc and His-tags are added to their C termini. After incubation of the cells for 48 hr, recombinant DLAD and recombinant DNase II were purified by IMAC using Ni-NTA spin column, in the same manner as in (2) of Example 3. The purified DLAD (or DNase II), which was eluted in 300 μl of elution buffer [50 mM sodium phosphate (pH 8.0) containing 250 mM imidazole and 300 mM NaCl], was dialyzed against 20 mM Mes-NaOH containing 1 mM 2-mercaptoethanol and used in the following assay for enzyme activities. The Sample obtained by treating HeLa S3 cells transfected with empty vector in the same manner was used as a control.
In the following experiments, the assay for DNase activity was performed as below, unless otherwise described. 20 μl of reaction mixture [50 mM Mes-NaOH (pH 5.2), 1 mM 2-mercaptoethanol, 1 unit of enzyme, 500 ng supercoiled or EcoR I-digested linear pBLUESCRIPT KS+ phagemid vector] was prepared on ice and incubated at 45° C. for 20 min. The reaction was terminated with phenol/chloroform and 5 μl aliquot of the reaction mixture was subjected to 1% agarose gel electrophoresis. After ethidium bromide staining, the image was scanned with CCD camera (Atto) under UV transillumination and optical density of the band corresponding to the full length substrate DNA was quantified by densitometry (NIH image 1.60). DNase activity was determined using reduction of the band intensity corresponding to the full length substrate DNA as an index. In the present invention, 1 unit of DLAD and DNase II activities are defined as their amounts required to decrease the band intensity corresponding to 200 ng of the full length substrate DNA under the above-mentioned reaction conditions.
DLAD activities were determined in the presence of various concentrations of DNase inhibitors [MgCl2 (FIG. 2A, ◯), MgSO4 (FIG. 2A, ●), aurintricarboxylic acid (FIG. 2B), G-actin (FIG. 2C), CoCl2 (FIG. 2D, ▪), NiCl2 (FIG. 2D, Δ) and ZnCl2 (FIG. 2D, ●)] under the above-mentioned standard conditions to analyze its sensitivity against the inhibitors. […] In contrast, it is known that there are little differences between these three divalent metal ions in inhibitory effect on DNase II [J. Biochem., 87: 1097-1103 (1980)].

Series [2] addresses T1, DLAD. Kind of series: Divalent cation-dependency of DLAD activity (chelators). The format is biochemical. The settings on record: 1 mM chelator; pH 5.2 and pH 7.2; supercoiled plasmid. The protocol:
(§1) In the same manner as in (2) of Example 3, HeLa S3 cells (5×10^6) were transfected with 25 μg of pcmDLAD-Myc-His or pcmDNaseII-Myc-His, individually. These plasmids encode the mature proteins of DLAD and DNase II, respectively, wherein Myc and His-tags are added to their C termini. After incubation of the cells for 48 hr, recombinant DLAD and recombinant DNase II were purified by IMAC using Ni-NTA spin column, in the same manner as in (2) of Example 3. […]
(§2) In the following experiments, the assay for DNase activity was performed as below, unless otherwise described. […] After ethidium bromide staining, the image was scanned with CCD camera (Atto) under UV transillumination and optical density of the band corresponding to the full length substrate DNA was quantified by densitometry (NIH image 1.60). DNase activity was determined using reduction of the band intensity corresponding to the full length substrate DNA as an index. […]
Using a supercoiled plasmid as a substrate, DLAD activities in the presence and absence of a divalent cation chelator were determined under acidic (50 mM Mes-NaOH, pH 5.2) and neutral (50 mM Mops-NaOH, pH 7.2) conditions, respectively. […]

The subject of the next series is supercoiled plasmid. Description: Active pH range and optimal pH of DNase activity. The format is biochemical. The conditions noted are these: Mes-NaOH; pH 4.0 to 7.6 examined. As to the method:
as §1, §2
Using a supercoiled plasmid as a substrate, DLAD and DNase II activities were determined under the above-mentioned standard conditions except varying kinds of buffers and pH [i.e., acetate-NaOH (pH 4.0 and 4.4), Mes-NaOH (pH 4.8, 5.2, 5.6, 6.0 and 6.4) and Mops-NaOH (pH 6.4, 6.8, 7.2 and 7.6)]. […]

Series [3] has as its system supercoiled p[…]+ phagemid vector. Kind of series: Mode of DNA hydrolysis (end labeling of degraded plasmid). In kind it is biochemical. The conditions noted are these: standard conditions. As to the method:
Using a supercoiled pBLUESCRIPT KS+ phagemid vector as a substrate, enzyme reaction of DLAD or DNase II was performed under the above-mentioned standard conditions. After terminating the reaction, contaminants were removed by phenol/chloroform treatment to isolate degraded plasmid DNA. The 3′ ends were labeled in 50 μl of a reaction solution consisting of 20 units of terminal deoxynucleotidyl transferase (Toyobo), 0.83 mCi/ml […], 100 mM sodium cacodylate (pH 7.2), 0.2 mM DTT and 1 mM CoCl2. The 5′ ends were labeled in 50 μl of a reaction solution consisting of 20 units of polynucleotide kinase (Toyobo), 0.83 mCi/ml [γ-^32P]ATP, 50 mM Tris-HCl (pH 8.0), 10 mM MgCl2 and 10 mM 2-mercaptoethanol. The end-labeling treatments were performed as to both DNAs with and without pretreatment with 20 units of calf intestinal alkaline phosphatase (Takara) in the presence of 50 mM Tris-HCl (pH 8.0) and 1 mM MgCl2 to remove the phosphoryl groups in the ends of DNAs, respectively. Unincorporated nucleotides were removed by ethanol precipitation. The labeled DNA was subjected to 1% agarose gel electrophoresis, transferred onto nylon membrane and analyzed with BAS 1500 image analyzer (Fuji Film). […]

The nature of series [4]: Stability in the medium for HeLa S3 cells.
Series [5] can be described thus: Characterization of recombinant rat and human DLAD. The format is biochemical. The conditions noted are these: recombinant protein from HeLa S3 cells. An excerpt: Using the same strategy as in Example 1, a rat EST clone (GenBank AF178974) encoding the amino acid sequence with homology to the deduced amino acid sequence of human DNase II was identified. Oligonucleotide primers were synthesized based on the nucleotide sequence of this clone, followed by the RACE with liver poly A(+) RNA derived from Wister rat, which is connately pigment-deficient (albino), as a template to clone the full length rat DLAD cDNA. From the sequence analysis by a conventional method, it was deduced that this cDNA contains an ORF encoding 356 amino acids with a signal peptide consisting of 22 amino acids at the N terminus. […] An expression vector encoding rat DLAD with Myc and His-tags at the C terminus (prDLAD-Myc-His) was constructed by the same strategy as in (1) of Example 3. HeLa S3 cells were transfected with this vector to generate a recombinant rat DLAD.
(sequence complementary to the nucleotide sequence of the nucleotide Nos. 973 to 999 of the nucleotide sequence shown in Sequence Listing, SEQ ID NO: 4) were synthesized and, further using the above-mentioned linker primer AP1 together with these primers, RACE was performed with human liver-derived poly A(+) RNA as a template to clone the full length human DLAD cDNA. […]

For orientation: IC50 means the point on the concentration scale where inhibition reaches its midpoint. Take `O=C(O)C1=CC(=C(c2ccc(O)c(C(=O)O)c2)c2ccc(O)c(C(=O)O)c2)C=CC1=O` [Aurintricarboxylic acid]: the IC50 on DLAD [1] is 0.006 mM.

Regarding `O=C(O)CN(CCN(CC(=O)O)CC(=O)O)CC(=O)O` [EDTA], at DLAD [2], the “Effect of divalent cation chelator on DLAD activity” value is “no effect”. In the case of `O=C(O)CN(CCOCCOCCN(CC(=O)O)CC(=O)O)CC(=O)O` [EGTA], the “Effect of divalent cation chelator on DLAD activity” value at DLAD [2] was “no effect”.

As for `[Cl-].[Cl-].[Mg+2]` [MgCl2], the IC50 at DLAD [1] was 13 mM. Still for that read-out and setting: to `O=S(=O)([O-])[O-].[Mg+2]` [MgSO4] belongs 7 mM; to `[Cl-].[Cl-].[Zn+2]` [Zn^2+, ZnCl2], 0.2 mM.

B1: DLAD: novel acid DNase cleaving DNA independently from divalent cations; mouse, amino acid Nos. 1 to 332 of SEQ ID NO: 1 (protein, listed as Mus musculus)
chain: MTAKPLRTVLSLLFFALSGVLGTPEISCRNEYGEAVDWFIFYKLPKRTSKASEEAGLQYLYLDSTRQTWNKSLYLINSTRSALGRTLQHLYDTHNSTNDTAYLIYNDGVPGSVNYSRQYGHAKGLLVWNRTQGFWLIHSVPKFPPVHGYEYPTSGRRYGQTGICITFGYSQFEEIDFQLLVLQPNIYSCFIPSTFHWKLIYMPRMCANSSSLKIPVRYLAELHSAQGLNFVHFAKSSFYTDDIFTGWIAQKLKTHLLAQTWQKKKQELPSNCSLPYHVYNIKSIGVTSKSYFSSRQDHSKWCVSIKGSANRWTCIGDLNRSLHQALRGGGFI
On to B1, for which, in the series with supercoiled plasmid, the “Optimal pH of DNase activity” value amounted to 5.2. In addition, the “DNA cleavage mode (ends generated)” value in series [3] was 3′-P/5′-OH ends. Moreover, the “Stability in the medium” value in series [4] is reported as “as stable as DNase II”.

B2: human DLAD: recombinant human DLAD, SEQ ID NO: 3, Myc and His-tags at the C terminus (protein, listed as Homo sapiens)
chain: MKQKMMARLLRTSFALLFLGLFGVLGAATISCRNEEGKAVDWFTFYKLPKRQNKESGETGLEYLYLDSTTRSWRKSEQLMNDTKSVLGRTLQQLYEAYASKSNNTAYLIYNDGVPKPVNYSRKYGHTKGLLLWNRVQGFWLIHSIPQFPPIPEEGYDYPPTGRRNGQSGICITFKYNQYEAIDSQLLVCNPNVYSCSIPATFHQELIHMPQLCTRASSSEIPGRLLTTLQSAQGQKFLHFAKSDSFLDGIFAAWMAQRLKTHLLTETWQRKRQELPSNCSLPYHVYNIKAIKLSRHSYFSSYQDHAKWCISQKGTKNRWTCIGDLNRSPHQAFRSGGFICTQNWQIYQAFQGLVLYYESCK
modifications: C-terminal Myc and His tags
B2: the “Properties: active pH range, divalent cation-dependency, mode of DNA cleavage, sensitivity to inhibitors” value in series [5] is recorded as “properties similar to mouse DLAD”.

B3: rat DLAD: recombinant rat DLAD, ORF encoding 356 amino acids, Myc and His-tags at the C terminus (protein, UniProt Q9QZK9 23-356, looked up)
Deoxyribonuclease-2-beta: TPVISCINEDGKAVDWFAFYKLPRRTSRGGTGMGLDYLYLDSTMRTWSKSHHLINSSRSSLGRTLEQLYEAHNAKNDTAYLIYNDAVPASVNYSGNYGHAKGLLVWNRVQGFWLIHSIPKFPPVPEKGYEYPSSGRQYAQSGLCITLKYSQYETIDSQLLVFQPNIYSCFIPNIFRWELIHMPQMCAKSSASKIPSRRLTVLQSAQGLNFLHFAKSTFYTDDIFAAWIAQKLKVHLLVESWQRKNHELPSNCSLPYHVYNIKAIRGPLQSDFPSHHDHSKWCVSTKDSQARWTCIGDLNRSPHQALRSGGFICSKNRYIYQSFDRLVSHYASCN
modifications: C-terminal Myc and His tags
notes: recombinant rat DLAD, ORF encoding 356 amino acids, Myc and His-tags at the C terminus
With B3, the “Properties: active pH range, divalent cation-dependency, mode of DNA cleavage, sensitivity to inhibitors” value in series [5] is given as “properties similar to mouse DLAD”.
